Measured values from patent US20090203577A1 (EXELIXIS, INC., priority 2005, published 2009).
Like-named read-outs stand apart in the source and are kept apart here.

Molecular target: T1, human farnesoid X receptor (Homo sapiens, UniProt Q96RI1)
T1 construct: CMX-farnesoid X receptor (full length human farnesoid X receptor); expressed in transfected cells; host or cells: CV-1 African Green Monkey Kidney cells
T1 sequence (Q96RI1 1-472 isoform Q96RI1-2): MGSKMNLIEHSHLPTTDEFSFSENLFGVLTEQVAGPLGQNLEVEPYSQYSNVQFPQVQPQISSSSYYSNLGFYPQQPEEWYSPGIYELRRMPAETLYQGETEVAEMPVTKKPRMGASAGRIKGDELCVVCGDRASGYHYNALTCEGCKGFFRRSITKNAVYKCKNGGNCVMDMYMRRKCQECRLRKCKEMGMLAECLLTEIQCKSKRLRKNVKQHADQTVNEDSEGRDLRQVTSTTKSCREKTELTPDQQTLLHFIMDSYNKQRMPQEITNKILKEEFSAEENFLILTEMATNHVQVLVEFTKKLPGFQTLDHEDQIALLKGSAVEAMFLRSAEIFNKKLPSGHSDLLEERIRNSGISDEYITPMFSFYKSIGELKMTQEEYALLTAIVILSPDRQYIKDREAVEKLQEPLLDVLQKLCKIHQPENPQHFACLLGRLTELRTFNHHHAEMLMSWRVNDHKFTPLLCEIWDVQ
T1 sequence (P19793 1-462 partner): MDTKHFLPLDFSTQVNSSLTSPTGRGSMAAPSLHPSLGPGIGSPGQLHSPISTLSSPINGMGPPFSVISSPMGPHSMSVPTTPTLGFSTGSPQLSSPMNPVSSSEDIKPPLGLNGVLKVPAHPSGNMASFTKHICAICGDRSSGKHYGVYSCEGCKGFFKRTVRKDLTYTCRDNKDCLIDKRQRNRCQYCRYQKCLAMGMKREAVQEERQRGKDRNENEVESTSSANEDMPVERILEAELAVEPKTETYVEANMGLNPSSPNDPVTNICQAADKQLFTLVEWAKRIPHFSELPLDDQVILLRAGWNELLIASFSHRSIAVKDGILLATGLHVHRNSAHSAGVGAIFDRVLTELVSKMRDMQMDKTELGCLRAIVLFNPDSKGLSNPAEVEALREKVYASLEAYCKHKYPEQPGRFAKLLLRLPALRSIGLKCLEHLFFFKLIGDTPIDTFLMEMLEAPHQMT
Assay: FXR in vitro assays (farnesoid X receptor/ECREx7 co-transfection assay, TR-FRET assay), Table I
Format: cell-based
Settings: for Emax: read-out: % Efficacy
Method: The basic co-transfection protocol for measuring the farnesoid X receptor activity is as follows. CV-1 African Green Monkey Kidney cells were plated 24 hours before transfection to achieve approximately 70-80 percent confluency. […] The assay was allowed to continue for an additional 18-20 hours, after which the cells were lysed, with lysis buffer (1% triton X 100, 10% glycerol, 5 mM Dithiothreitol, 1 mM EGTA, 25 mM Tricine, pH 7.8) and the luciferase activity measured in the presence of Luciferase assay buffer (0.73 mM ATP, 22.3 mm Tricine, 0.11 mM EGTA, 0.55 mM Luciferin, 0.15 mM Coenzyme A, 0.5 mM HEPES, 10 mM Magnesium sulphatc) on a standard luminometer plate reader (PE Biosystems, NorthStar Reader), using recommended operating instructions and conditions.
The dose response curves are generated from an 8 point curve with concentrations differing by ½ LOG units. Each point represents the average of 4 wells of data from a 384 well plate. A curve for the data is generated by using the equation:
Y=Bottom+(Top−Bottom)/(1+10̂((Log EC50−X)*HillSlope))
The EC50/IC50 is therefore defined as the concentration at which an agonist or antagonist elicits a response that is half way between the Top (maximum) and Bottom (baseline) values. The EC50/IC50 values represented are the averages of at least 3 independent experiments.

[1] = agonist activity, one or more of the in vitro assays, read-out: EC50

Row | SMILES | EC50 [1] [nM] | Emax [%] | EC50 [nM]
1 | CC(C)OC(=O)C1=CN(C(=O)c2cccc(CN(C)C)c2)CC(C)(C)c2c1[nH]c1ccccc21 [Example 108, 1-methylethyl 3-({3-[(dimethylamino)methyl]phenyl}-carbonyl)-1,1-dimethyl-1,2,3,6-tetrahydroazepino[4,5-b]indole-5-carboxylate] | 100 to 1000 | > 100 | –
2 | Cc1cc(C(=O)N2C=C(C(=O)OC(C)C)c3[nH]c4ccccc4c3C(C)(C)C2)no1 [Example 109, 1-methylethyl 1,1-dimethyl-3-[(5-methylisoxazol-3-yl)carbonyl]-1,2,3,6-tetrahydroazepino[4,5-b]indole-5-carboxylate] | 100 to 1000 | > 100 | –
3 | CC(C)OC(=O)C1=CN(C(=O)c2ccc(F)cc2C(F)(F)F)CC(C)(C)c2c1[nH]c1ccccc21 [Example 110, 1-methylethyl 3-{[4-fluoro-2-(trifluoromethyl)phenyl]car-bonyl}-1,1-dimethyl-1,2,3,6-tetrahydroazepino[4,5-b]indole-5-carboxylate] | 10 to 100 | > 100 | –
4 | CC(C)OC(=O)C1=CN(C(=O)c2ccc(F)cc2Cl)CC(C)(C)c2c1[nH]c1ccccc21 [Example 111, 1-methylethyl 3-[(2-chloro-4-fluorophenyl)carbonyl]-1,1-dimethyl-1,2,3,6-tetrahydroazepino[4,5-b]indole-5-carboxylate] | 10 to 100 | > 100 | –
5 | CCN(CC)CCCNC(=O)Oc1ccc2c3c([nH]c2c1)C(C(=O)OC(C)C)=CN(C(=O)c1ccc(F)c(F)c1)CC3(C)C [Example 112, 1-methylethyl 8-[({[3-(diethylamino)propyl]amino}carbonyl)oxy]-3-[(3,4-difluorophenyl)carbonyl]-1,1-dimethyl-1,2,3,6-tetrahydroazepino[4,5-b]indole-5-carboxylate] | – | > 100 | 1000 to 10000
6 | CC(C)OC(=O)C1=CN(C(=O)c2cccc(CCl)c2)CC(C)(C)c2c1[nH]c1ccccc21 [Example 113, 1-methylethyl 3-{[3-(chloromethyl)phenyl]car-bonyl}-1,1-dimethyl-1,2,3,6-tetrahydroazepino[4,5-b]indole-5-carboxylate] | 10 to 100 | > 100 | –
7 | CCN(CC)Cc1cccc(C(=O)N2C=C(C(=O)OC(C)C)c3[nH]c4ccccc4c3C(C)(C)C2)c1 [Example 114, 1-methylethyl 3-({3-[(diethylamino)methyl]phenyl}carbonyl)-1,1-dimethyl-1,2,3,6-tetrahydroazepino[4,5-b]indole-5-carboxylate] | 100 to 1000 | > 100 | –
8 | CC(C)OC(=O)C1=CN(C(=O)c2ccc(F)c(F)c2)CC(C)(C)c2c1[nH]c1ccc(OCc3ccccc3)cc21 [Example 115, 1-methylethyl 3-[(3,4-difluorophenyl)carbonyl]-1,1-dimethyl-9-[(phenylmethyl)oxy]-1,2,3,6-tetrahydroazepino[4,5-b]indole-5-carboxylate] | 10 to 100 | > 100 | –
9 | CC(C)OC(=O)C1=CN(C(=O)c2cccc(CN3CCCC3)c2)CC(C)(C)c2c1[nH]c1ccccc21 [Example 117, 1-methylethyl 1,1-dimethyl-3-{[3-(pyrrolidin-1-ylmethyl)phenyl]carbonyl}-1,2,3,6-tetrahydroazepino[4,5-b]indole-5-carboxylate] | – | > 100 | –
10 | CCN1CCN(Cc2cccc(C(=O)N3C=C(C(=O)OC(C)C)c4[nH]c5ccccc5c4C(C)(C)C3)c2)CC1 [Example 120, 1-methylethyl 3-({3-[(4-ethylpiperazin-1-yl)methyl]phenyl}carbonyl)-1,1-dimethyl-1,2,3,6-tetrahydroazepino[4,5-b]indole-5-carboxylate] | 100 to 1000 | > 100 | –
11 | CC1(C)CN(C(=O)c2ccc(F)c(F)c2)C=C(C(=O)CCl)c2[nH]c3ccccc3c21 [Example 121, 2-chloro-1-{3-[(3,4-difluorophenyl)carbonyl]-1,1-dimethyl-1,2,3,6-tetrahydroazepino[4,5-b]indol-5-yl}ethanone] | 100 to 1000 | < 40 | –
12 | CC1(C)OCC(COC(=O)C2=CN(C(=O)c3ccc(F)c(F)c3)CC(C)(C)c3c2[nH]c2ccccc32)O1 (stereo not shown) [Example 122, (2,2-dimethyl-1,3-dioxolan-4-yl)methyl 3-[(3,4-difluorophenyl)carbonyl]-1,1-dimethyl-1,2,3,6-tetrahydroazepino[4,5-b]indole-5-carboxylate] | 100 to 1000 | > 100 | –
13 | COC(=O)C1=CN(C(=O)c2ccc(F)c(F)c2)CC(C)(C)c2c1[nH]c1ccccc21 [Example 123, methyl 3-[(3,4-difluorophenyl)carbonyl]-1,1-dimethyl-1,2,3,6-tetrahydroazepino[4,5-b]indole-5-carboxylate] | 100 to 1000 | > 100 | –
14 | CC1(C)CN(C(=O)c2ccc(F)c(F)c2)C=C(C(=O)OCC(O)CO)c2[nH]c3ccccc3c21 (stereo not shown) [Example 124, 2,3-dihydroxypropyl 3-[(3,4-difluorophenyl)carbonyl]-1,1-dimethyl-1,2,3,6-tetrahydroazepino[4,5-b]indole-5-carboxylate] | 10 to 100 | > 100 | –
15 | CC(C)OC(=O)C1=CN(C(=O)c2cccc(CN3CCOCC3)c2)CC(C)(C)c2c1[nH]c1ccccc21 [Example 125, 1-methylethyl 1,1-dimethyl-3-{[3-(morpholin-4-ylmethyl)phenyl]carbonyl}-1,2,3,6-tetrahydroazepino[4,5-b]indole-5-carboxylate] | – | > 100 | –
16 | CC(C)OC(=O)C1=CN(C(=O)c2ccc(F)c(F)c2)CC(C)(C)c2c1[nH]c1cc(OC(=O)NCCN3CCCC3)ccc21 [Example 126, 1-methylethyl 3-[(3,4-difluorophenyl)carbonyl]-1,1-dimethyl-8-({[(2-pyrrolidin-1-ylethyl)amino]carbonyl}oxy)-1,2,3,6-tetrahydroazepino[4,5-b]indole-5-carboxylate] | – | > 100 | 10 to 100
17 | CC(C)OC(=O)C1=CN(C(=O)c2cccc(C(F)(F)F)c2)CC(C)(C)c2c1[nH]c1ccccc21 [Example 128, 1-methylethyl 1,1-dimethyl-3-{[3-(trifluoromethyl)phenyl]car-bonyl}-1,2,3,6-tetrahydroazepino[4,5-b]indole-carboxylate] | 10 to 100 | > 100 | –
18 | CC1(C)CN(C(=O)c2ccc(F)c(F)c2)C=C(C(=O)OC[C@H](O)CO)c2[nH]c3ccccc3c21 [Example 129, (2R)-2,3-dihydroxypropyl 3-[(3,4-difluorophenyl)carbonyl]-1,1-dimethyl-1,2,3,6-tetrahydroazepino[4,5-b]indole-5-carboxylate] | 100 to 1000 | > 100 | –
19 | CC(C)OC(=O)C1=CN(C(=O)c2cccc(C(F)(F)F)c2F)CC(C)(C)c2c1[nH]c1ccccc21 [Example 133, 1-methylethyl 3-{[2-fluoro-3-(trifluoromethyl)phenyl]car-bonyl}-1,1-dimethyl-1,2,3,6-tetrahydroazepino[4,5-b]indole-5-carboxylate] | 10 to 100 | > 100 | –
20 | CC1(C)CN(C(=O)c2ccc(F)c(F)c2)C=C(C(=O)OC(CF)CF)c2[nH]c3ccccc3c21 [Example 136, 2-fluoro-1-(fluoromethyl)ethyl 3-[(3,4-difluorophenyl)carbonyl]-1,1-dimethyl-1,2,3,6-tetrahydroazepino[4,5-b]indole-5-carboxylate] | 1 to 10 | > 100 | –
21 | CC(C)OC(=O)C1=CN(C(=O)c2ccc(-n3cccn3)cc2)CC(C)(C)c2c1[nH]c1ccccc21 [Example 141, 1-methylethyl 1,1-dimethyl-3-{[4-(1H-pyrazol-1-yl)phenyl]carbonyl}-1,2,3,6-tetrahydroazepino[4,5-b]indole-5-carboxylate] | 10 to 100 | > 100 | –
